Data: patent publication US20260272936A1, “TREATMENT OF CANCER WITH A PARG INHIBITOR” (858 Therapeutics, Inc., priority 2023, published 2026)

Legend:
[1] = system: T026OV ovarian cancer patient-derived organoid; experiment: 7-day organoid colony formation, ATP content (Cell Titer Glo 3D); format: cell-based, human; conditions: T026OV PDO, 7 days
Description: (§1) The FU-97 (Cat #JCRB1074) human gastric cancer cell line and the Kuramochi (Cat #JCRB0098) and RMUG-S(Cat #IFO50320) human ovarian cancer cell lines were obtained from the National Institutes of Biomedical Innovation, Health and Nutrition's Japanese Collection of Research Bioresources (JCRB) (Ibaraki City, Osaka, Japan). The HCC1419 (Cat #CRL-2326) and HCC1428 (Cat #CRL-2327) human breast cancer cell lines and the NCI-H1650 (Cat #CRL-5883) and NCI-H1792 (Cat #CRL-5895) non-small cell lung cancer cell lines were obtained from ATCC (Manassas, Virginia, USA). The human gastric cancer cell lines GCIY (Cat #RCB0555) and SNU601 (Cat #CSC-C9686L) were obtained from the Riken Bioresource Research Center (Tsukuba, Ibaraki, Japan) and Creative Bioarray (Shirley, NY, USA), respectively. The T025OV ovarian cancer organoid model was developed from a patient-derived xenograft (PDX) model, which was developed from primary serous ovarian carcinoma cells obtained from Discovery Life Sciences (Huntsville, AL, USA, SN #350627149). T026OV organoids were developed from PDX cells obtained from The Jackson Laboratory (Bar Harbor, ME, USA, Cat #TM00335).
T025OV and T026OV PDOs were cultured in PDO complete media on a thin layer of growth-factor reduced Matrigel (Corning, Glendale, AZ, USA Cat #356231). […]
(§2) Compound 1 IC50 values for inhibition of organoid colony formation were determined by measuring ATP levels after 7 days of treatment utilizing Cell Titer Glo 3D reagent (Promega, Madison, WI, USA Cat #G9683). […] Luminescence values (RLU) were read-out using a Clariostar plate reader (BMG Labtech, Cary, NC). […]

[2] = system: HCC1428 breast cancer xenograft; conditions: monotherapy or in combinations
Protocol: The CDX model was established by subcutaneous inoculation of HCC1428 cells into the right flank of BALB/c nude mice. Mice were injected subcutaneously with estradiol benzoate one day prior to cell inoculation and then twice per week thereafter to promote optimal growth of the ER^+ cell line. Groups of 9 animals each were established by random assignment. Tumor volumes and body weights were measured twice weekly. Tumor volume and percent tumor growth inhibition (TGI) or percent tumor regression (REG) were calculated as described in Example 4A. End-of-study Day […] TGI or REG was calculated relative to the Day 25 mean TV from the vehicle group. Statistical analysis of the Day 25 tumor volumes was performed using the Brown-Forsythe and Welch ANOVA test.
Compound treatment was initiated when the mean tumor volume of each group was 184 mm^3. Compound 1 was administered to mice orally for 25 days once daily (QD) at a dose of 100 mg/kg based on body weight. Abemaciclib was administered orally at a dose of 30 mg/kg QD for 25 days based on body weight and fulvestrant was administered subcutaneously at a dose of 5 mg/mouse once per week (QW). Following the dosing period of 25 days, an observation period was conducted for Group 5 (Compound 1+abemaciclib), Group 7 (abemaciclib+fulvestrant), and Group 8 (Compound 1+abemaciclib+fulvestrant) with continued twice weekly measurement of tumor volume and body weight measurements but no additional administration of compound.

[3] = system: T025OV ovarian cancer patient-derived organoid; experiment: 7-day organoid colony formation, ATP content (Cell Titer Glo 3D); format: cell-based; conditions: Homo sapiens, 168 h, T025OV PDO, 7 days, geometric mean
Description: as §1, with “T026OV organoids were developed from PDX cells obtained from The Jackson Laboratory (Bar Harbor, ME, USA, Cat #TM00335).” left out
as §2

## [2H]C([2H])(c1cnn(C)c1)N1C(=O)c2cc(S(=O)(=O)NC3(C)CC3)ccc2N2C1=NC[C@H]2C [Compound 1, (R)-1-methyl-4-((1-methyl-1H-pyrazol-4-yl)methyl-d2)-N-(1-methylcyclopropyl)-5-oxo-1,2,4,5-tetrahydroimidazo[1,2-a]quinazoline-7-sulfonamide]
[1]; Homo sapiens, 168 h, geometric mean, read-out: IC50 inhibition of ATP content
  IC50: 213 nM
[1]; Homo sapiens, 168 h, geometric mean, read-out: IC90 inhibition of ATP content
  IC90: 567 nM
[1]
  maximum reduction in cellular ATP content: approximately 50%
[2]
  tolerability: well tolerated
[3]; read-out: IC50 inhibition of ATP content
  IC50: 1070 nM
[3]; read-out: IC90 inhibition of ATP content
  IC90: 10700 nM
